Reference: US4022900A, “Compositions containing 1,2,3,4-tetrahydroisoquinolines used as hypotensive agents” (Marion Laboratories, Inc., priority 1972, dated 1977)
Where a name gives a salt, the structure may show the parent alone. Read-outs that look alike come from different tables or passages of the source.

Columns and labels:
[1] = Acute toxicity (LD50) in the mouse; settings: in vivo; for LD50: Table I, unit, species and route not given; for LD50 at 24 h: ip, read-out: Approximate Acute Toxicity (24 hrs.) In the Mouse, LD50
Protocol: 5-(3,4,5-trimethoxybenzamido)-2-methyl-1,2,3,4-tetrahydroisoquinoline (M-20) in mice has an LD-50 of about 125 to 250 mg/kg intraperitoneally.
(§1) Additional compounds have been tested. The toxicity data for the additional compounds tested, and their identity, is given in the following Table II while the blood pressure lowering activity of the compounds is given in the following Table III. The heading "Example Number" in the tables refers to the working example herein which discloses the compounds and its preparation. The test procedure used for determining the blood pressure lowering activity of the compounds is the same as that previously set forth herein. However, the figures in Table III are expressed as percentage change in blood pressure, rather than in mm of mercury change in blood pressure, as presented in Table I herein.
Approximate Acute Toxicity (24 hrs.)
(a) Suspension in 1% tragacanth
(b) Solution in distilled water
(c) Solubilized with the aid of dilute acid

[2] = tested on: systolic blood pressure of deoxycorticosterone acetate hypertensive rats; experiment: Hypotensive activity in DCA/saline hypertensive rats (systolic blood pressure, tail cuff); assay type: in vivo, rat (male, CD strain); settings: for Lowering of Blood Pressure in Hypertensive rate in mm's of Hg., 1 hr. / Lowering of Blood Pressure in Hypertensive rate in mm's of Hg., 2 hrs. / Lowering of Blood Pressure in Hypertensive rate in mm's of Hg., 4 hrs. / Lowering of Blood Pressure in Hypertensive rate in mm's of Hg., 24 hrs. / compounds which appear most active from Table I: 50 mg/kg intraperitoneal; for Lowering of Blood Pressure in Hypertensive rate in mm's of Hg., 1 hr. / Lowering of Blood Pressure in Hypertensive rate in mm's of Hg., 2 hrs. / Lowering of Blood Pressure in Hypertensive rate in mm's of Hg., 4 hrs. / Lowering of Blood Pressure in Hypertensive rate in mm's of Hg., 24 hrs.: change vs predrug control, six rats; for compounds which appear most active from Table I: qualitative ranking; for Percent Change in Pressure from Control ± S.E., 1 Hour / Percent Change in Pressure from Control ± S.E., 2 Hours / Percent Change in Pressure from Control ± S.E., 4 Hours / Percent Change in Pressure from Control ± S.E., 24 Hours: 50 mg/kg i.p., systolic pressure, * <0.05 significance (Newman-Keuls)
Protocol: Hypertension was produced in weanling (30-day old) male rats of the CD strain obtained from the Charles River Breeding Laboratories (Wilmington, Mass.) by subcutaneously implanting about the dorsal surface of the neck a pellet of deoxycorticosterone acetate (DCA) containing 10 mg DCA in a mixture of Carbowax 4000 (Union Carbide) and Flexowax C light (Glyco Products). Their drinking water was replaced by a 1% sodium chloride solution, a procedure known to facilitate the development of an experimental hypertension, and they had free access to chow. Systolic blood pressure in the caudal arteries was measured indirectly by a pneumatic pulse transducer and a tail pressure cuff on a Physiograph Four recorder (Narco Bio-Systems, Inc., Houston, Texas) in unanesthetized but restrained rats prewarmed to 40° C., 10-15 minutes prior to the determination. The rats were kept at a temperature of 40° C. for all determinations of systolic pressure in an attempt to minimize variations in blood pressure due to marked changes in arterial tone caused by changes in temperature. Blood pressures were measured at intervals in the DCA-treated rats given saline and in non-treated control rats. After 20 days, the mean systolic pressure in the DCA-treated rats was above 150 mm Hg. Hypertension was regarded as being established in the rats at this stage and they were at intervals, usually beginning with the 30th day after DCA-implant in testing for hypotensive activity. Following a series of control blood pressure readings, a dose of 50 mg/kg of the compound under investigation was administered by intraperitoneal injection either in solution or as a suspension in 1% tragacanth solution to groups of six hypertensive rats. Blood pressures were redetermined at 1, 2, 4 and 24 hour periods following injection. At each interval, the systolic pressure was measured a minimum of five times in each rat and the average value was calculated. Mean values for the group were calculated from the individual average values and compared with their predrug control levels. The statistical significance of the changes produced by the compounds, in the doses employed, was tested by the "t" test as well as by an analysis of variance. The reductions in blood pressure obtained with the indicated representative tetrahydroisoquinoline compounds are shown in Table I. The code number for the compound and the example herein showing its preparation are both given in Table I.
as §1

[3] = solubilized with the aid of dilute acid

Compound	LD50 [1]	Lowering of Blood Pressure in Hypertensive rate in mm's of Hg., 1 hr. [2]	Lowering of Blood Pressure in Hypertensive rate in mm's of Hg., 2 hrs. [2]	Lowering of Blood Pressure in Hypertensive rate in mm's of Hg., 4 hrs. [2]	Lowering of Blood Pressure in Hypertensive rate in mm's of Hg., 24 hrs. [2]	compounds which appear most active from Table I [2]	LD50 at 24 h ([1]; suspension in 1% tragacanth)	Percent Change in Pressure from Control ± S.E., 1 Hour [2]	Percent Change in Pressure from Control ± S.E., 2 Hours [2]	Percent Change in Pressure from Control ± S.E., 4 Hours [2]	Percent Change in Pressure from Control ± S.E., 24 Hours [2]	LD50 at 24 h [1, 3]
COc1ccc(C(=O)Nc2cccc3c2CCNC3)cc1OC [M-34, 5-(3,4-Dimethoxybenzamido)-1,2,3,4-tetrahydroisoquinoline HCl]	500 to 1000 mg/kg	-33±5 mm's of Hg	-28±7 mm's of Hg	-23±4 mm's of Hg	-2±6 mm's of Hg	most active	–	–	–	–	–	–
COc1ccc(C(=O)Nc2cccc3c2CCNC3)cc1 [M-44, 5-(4-Methoxybenzamido)-1,2,3,4-tetrahydroisoquinoline HCl]	–	–	–	–	–	–	500 to 1000 mg/kg	-8.8 ± 4.8%	-6.5 ± 3.7%	-8.3 ± 2.4%	-6.4 ± 1.3%	–
COc1cc(C(=O)Nc2cccc3c2CCNC3)cc(OC)c1OC [M-46, 5-(3,4,5-Trimethoxybenzamido)-1,2,3,4-tetrahydroisoquinoline HCl]	250 to 500 mg/kg	-26±10 mm's of Hg	-25±7 mm's of Hg	-11±4 mm's of Hg	-18±4 mm's of Hg	–	–	–	–	–	–	–
CCCN1CCc2c(cccc2NC(=O)c2ccc(OC)c(OC)c2)C1 [M-47, 5-(3,4-Dimethoxybenzamido)-2-n-propyl-1,2,3,4-tetrahydroisoquinoline]	250 to 500 mg/kg	-35±7 mm's of Hg	-46±11 mm's of Hg	-41±8 mm's of Hg	-22±4 mm's of Hg	most active	–	–	–	–	–	–
CCCN1CCc2c(cccc2NC(=O)c2cc(OC)c(OC)c(OC)c2)C1 [M-49, 5-(3,4,5-Trimethoxybenzamido)-2-n-propyl-1,2,3,4-tetrahydroisoquinoline]	125 to 250 mg/kg	-31±6 mm's of Hg	-27±6 mm's of Hg	-21±6 mm's of Hg	-17±6 mm's of Hg	most active	–	–	–	–	–	–
CCCN1CCc2c(cccc2NC(=O)c2ccc(OC)cc2)C1 [M-50, 5-(4-methoxybenzamido)-2-n-propyl-1,2,3,4-tetrahydroisoquinoline]	–	–	–	–	–	–	–	-11.3 ± 1.9%	-17.8 ± 1.4%	-10.2 ± 2.8%	-6.2%	125 to 250 mg/kg
CN1CCc2c(cccc2NC(=O)c2ccccc2)C1 [M-54, 5-(benzamido)-2-methyl-1,2,3,4-tetrahydroisoquinoline]	125 to 250 mg/kg	-7±7 mm's of Hg	-14±6 mm's of Hg	-15±6 mm's of Hg	-10±3 mm's of Hg	–	–	–	–	–	–	–
COc1ccc(C(=O)Nc2cccc3c2CCN(C)C3)cc1OC [M-55, 5-(3,4-Dimethyoxybenzamido)-2-methyl-1,2,3,4-tetrahydroisoquinoline]	125 to 250 mg/kg	-32±5 mm's of Hg	-31±5 mm's of Hg	-32±4 mm's of Hg	-20±4 mm's of Hg	most active	–	–	–	–	–	–
COc1ccc(C(=O)Nc2cccc3c2CCN(C)C3)cc1 [M-56, 5-(4-Methoxybenzamido)-2-methyl-1,2,3,4-tetrahydroisoquinoline]	62 to 125 mg/kg	-14±5 mm's of Hg	-30±8 mm's of Hg	-19±6 mm's of Hg	-18±4 mm's of Hg	–	–	–	–	–	–	–
COc1cccc(OC)c1C(=O)Nc1cccc2c1CCN(C)C2 [M-57, 5-(2,6-Dimethoxybenzamido)-2-methyl-1,2,3,4-tetrahydroisoquinoline]	250 to 500 mg/kg	-2±8 mm's of Hg	-7±5 mm's of Hg	-14±10 mm's of Hg	-14±10 mm's of Hg	–	–	–	–	–	–	–
Cc1cccc(C)c1C(=O)Nc1cccc2c1CCN(C)C2 [M-58, 5-(2,6-Dimethylbenzamido)-2-methyl-1,2,3,4-tetrahydroisoquinoline]	–	–	–	–	–	–	–	-6.1 ± 1.7%	-2.4 ± 0.6%	-5.2 ± 1.8%	+2.0 ± 2.1%	125 to 250 mg/kg
COc1cc(C(=O)Nc2ccc3c(c2)CN(C)CC3)cc(OC)c1OC [M-59, 7-(3,4,5-Trimethoxybenzamido)-2-methyl-1,2,3,4-tetrahydroisoquinoline]	250 to 500 mg/kg	-60±7 mm's of Hg	-46±7 mm's of Hg	-34±6 mm's of Hg	-18±7 mm's of Hg	most active	–	–	–	–	–	–
CN1CCc2c(cccc2NC(=O)c2ccccc2Br)C1 [M-60, 5-(2-Bromobenzamido)-2-methyl-1,2,3,4-tetrahydroisoquinoline]	125 to 250 mg/kg	-12±4 mm's of Hg	-10±8 mm's of Hg	-20±3 mm's of Hg	-26±4 mm's of Hg	–	–	–	–	–	–	–
COc1cc(OC)c(C(=O)Nc2cccc3c2CCN(C)C3)cc1OC [M-61, 5-(2,4,5-Trimethoxybenzamido)-2-methyl-1,2,3,4-tetrahydroisoquinoline]	68 to 125 mg/kg	-15±4 mm's of Hg	-19±5 mm's of Hg	-15±4 mm's of Hg	-6±6 mm's of Hg	–	–	–	–	–	–	–
CN1CCc2c(cccc2NC(=O)c2ccccc2Cl)C1 [M-63, 5-(2-Chlorobenzamido)-2-methyl-1,2,3,4-tetrahydroisoquinoline]	125 to 188 mg/kg	-25±2 mm's of Hg	-36±4 mm's of Hg	-34±4 mm's of Hg	-28±4 mm's of Hg	most active	–	–	–	–	–	–
COc1cc(C(=O)Nc2cccc3c2CN(C)CC3)cc(OC)c1OC [M-65, 8-(3,4,5-Trimethoxybenzamido)-2-methyl-1,2,3,4-tetrahydroisoquinoline]	250 to 500 mg/kg	-55±10 mm's of Hg	-44±8 mm's of Hg	-27±3 mm's of Hg	-21±7 mm's of Hg	most active	–	–	–	–	–	–
